Reference: article PMC8445792 (Applied Biological Chemistry, 2021)

Tests used:
[1] = target: H5N1 NA (A/Anhui/1/2005) (Influenza A virus (A/Anhui/1/2005(H5N1)), UniProt A0A0C5AGB3); test: biochemical; conditions: read-out: % Inhibition ± SE H5N1 NA
[2] = target: H1N1 NA (A/California/04/2009) (Influenza A virus (A/California/04/2009(H1N1)), UniProt C3W5S3); test: biochemical; conditions: read-out: % Inhibition ± SE H1N1 NA

SMILES	inhibition at 100 µg/mL [1] [%]	inhibition at 100 µg/mL [2] [%]
O=C(/C=C/c1ccc([N+](=O)[O-])cc1)c1ccc(O)cc1 [Compound 2a]	21 ± 2	16 ± 2
O=C(O)c1ccc(/C=C/C(=O)c2ccc(O)cc2)cc1 [Compound 3a]	27	19 ± 2
O=C(/C=C/c1ccc(F)cc1)c1ccc(O)cc1 [Compound 1a]	23 ± 11	21 ± 7
COc1cc(C(=O)/C=C/c2ccc(OCc3ccccc3)c(OC)c2)ccc1O [Compound 2c]		1 ± 4
O=C(/C=C/c1ccc(F)cc1)c1ccc(OCc2ccccc2)cc1 [Compound 3b]	18 ± 3	2 ± 4
COc1cc(C=O)ccc1O [Vanillin, reference compound]	84 ± 4	86 ± 2
CC(C)Oc1ccc(C(=O)/C=C/c2ccc(F)cc2)cc1 [Compound 1b]	0	5 ± 8
COc1cc(/C=C/C(=O)c2ccc(O)cc2)ccc1OCc1ccccc1 [Compound 3c]	7 ± 8	2 ± 4
O=C(/C=C/c1ccc([N+](=O)[O-])cc1)c1ccc(OC2CCCC2)cc1 [Compound 4b]	15 ± 3	5 ± 5
